The values that follow come from ChEMBL document CHEMBL5465560, “Selectivity Literature for EUbOPEN Chemogenomic Library” (2024).

In assay [1] the target is Proto-oncogene tyrosine-protein kinase receptor Ret (Homo sapiens, UniProt P07949). The note with it: at 10 µM.
In assay [2] the target is T1, Mitogen-activated protein kinase kinase kinase 3 (Homo sapiens) (UniProt Q99759).
T1 sequence (whole entry): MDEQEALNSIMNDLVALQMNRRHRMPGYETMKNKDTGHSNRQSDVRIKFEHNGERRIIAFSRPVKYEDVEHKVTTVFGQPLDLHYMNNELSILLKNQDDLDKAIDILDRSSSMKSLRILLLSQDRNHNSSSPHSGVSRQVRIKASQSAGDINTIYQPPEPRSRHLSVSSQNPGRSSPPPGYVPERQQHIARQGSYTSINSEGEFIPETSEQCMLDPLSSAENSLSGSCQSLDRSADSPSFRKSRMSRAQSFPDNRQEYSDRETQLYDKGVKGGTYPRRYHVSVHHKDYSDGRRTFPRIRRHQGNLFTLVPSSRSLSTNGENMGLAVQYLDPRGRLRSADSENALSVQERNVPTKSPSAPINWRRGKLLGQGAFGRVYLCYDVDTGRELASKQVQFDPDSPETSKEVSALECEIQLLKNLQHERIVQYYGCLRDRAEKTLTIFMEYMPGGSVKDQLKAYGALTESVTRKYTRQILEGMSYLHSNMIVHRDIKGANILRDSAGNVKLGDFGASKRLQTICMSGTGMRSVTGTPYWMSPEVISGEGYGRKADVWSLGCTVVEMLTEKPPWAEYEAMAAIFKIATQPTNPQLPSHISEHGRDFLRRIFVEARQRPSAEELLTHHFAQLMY
Put plainly: Selectivity interaction (KinomeScan (DiscoverX)) EUB0001049a MAP3K3. Particulars: at 1 µM.

Assay [3] concerns the target T2, Calcium/calmodulin-dependent protein kinase type IV (Homo sapiens) (UniProt Q16566).
T2 sequence (whole entry): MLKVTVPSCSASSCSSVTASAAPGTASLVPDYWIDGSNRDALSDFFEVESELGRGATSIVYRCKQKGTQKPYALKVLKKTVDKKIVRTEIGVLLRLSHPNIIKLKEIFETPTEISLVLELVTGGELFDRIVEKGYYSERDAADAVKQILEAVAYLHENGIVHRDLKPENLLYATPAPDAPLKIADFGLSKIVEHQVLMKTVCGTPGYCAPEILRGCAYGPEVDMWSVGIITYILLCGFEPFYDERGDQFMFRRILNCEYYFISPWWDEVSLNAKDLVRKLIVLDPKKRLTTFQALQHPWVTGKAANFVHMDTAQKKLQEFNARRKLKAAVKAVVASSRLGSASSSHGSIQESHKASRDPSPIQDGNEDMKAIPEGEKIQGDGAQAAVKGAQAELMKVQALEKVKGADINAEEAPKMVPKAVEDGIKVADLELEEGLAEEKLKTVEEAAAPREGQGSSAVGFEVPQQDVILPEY
Put plainly: Selectivity interaction (KinomeScan (DiscoverX)) EUB0000655a CAMK4. Particulars: at 10 µM.

Assay [4] relates to Hepatocyte growth factor receptor (Homo sapiens), P08581 [Y1235D]. Put plainly: (§1) Selectivity interaction (KinomeScan (DiscoverX)) EUB0000666a MET. The note with it: at 10 µM.
Assay [5] concerns Hepatocyte growth factor receptor (Homo sapiens), P08581 [M1250T]. Described as §1. Particulars: at 10 µM.
Assay [6] addresses Phosphatidylinositol 4,5-bisphosphate 3-kinase catalytic subunit alpha isoform (Homo sapiens) (UniProt P42336). The assay can be described thus: Selectivity interaction (Adapta Assay) EUB0001632a PIK3CA. Particulars: at 10 µM.
For assay [7] the target is unchanged. The note with it: at 10 µM.
For assay [8], the target named is Ribosomal protein S6 kinase alpha-3 (Homo sapiens, UniProt P51812). The assay can be described thus: Selectivity interaction (ActivX KiNativ screen (kinase selectivity in THP-1 cell lysates)) EUB0000639a RPS6KA3. Type of assay: subcellular. The note with it: lysate, at 0.2 µM.
For assay [9], the target named is Bone morphogenetic protein receptor type-1A (Homo sapiens, UniProt P36894). Put plainly: Selectivity interaction (Kinase panel (Invitrogen)) EUB0000639a BMPR1A. The note with it: at 200 nM.
In assay [10] the target is T3, Inhibitor of nuclear factor kappa-B kinase subunit epsilon (Homo sapiens) (UniProt Q14164).
T3 sequence (whole entry): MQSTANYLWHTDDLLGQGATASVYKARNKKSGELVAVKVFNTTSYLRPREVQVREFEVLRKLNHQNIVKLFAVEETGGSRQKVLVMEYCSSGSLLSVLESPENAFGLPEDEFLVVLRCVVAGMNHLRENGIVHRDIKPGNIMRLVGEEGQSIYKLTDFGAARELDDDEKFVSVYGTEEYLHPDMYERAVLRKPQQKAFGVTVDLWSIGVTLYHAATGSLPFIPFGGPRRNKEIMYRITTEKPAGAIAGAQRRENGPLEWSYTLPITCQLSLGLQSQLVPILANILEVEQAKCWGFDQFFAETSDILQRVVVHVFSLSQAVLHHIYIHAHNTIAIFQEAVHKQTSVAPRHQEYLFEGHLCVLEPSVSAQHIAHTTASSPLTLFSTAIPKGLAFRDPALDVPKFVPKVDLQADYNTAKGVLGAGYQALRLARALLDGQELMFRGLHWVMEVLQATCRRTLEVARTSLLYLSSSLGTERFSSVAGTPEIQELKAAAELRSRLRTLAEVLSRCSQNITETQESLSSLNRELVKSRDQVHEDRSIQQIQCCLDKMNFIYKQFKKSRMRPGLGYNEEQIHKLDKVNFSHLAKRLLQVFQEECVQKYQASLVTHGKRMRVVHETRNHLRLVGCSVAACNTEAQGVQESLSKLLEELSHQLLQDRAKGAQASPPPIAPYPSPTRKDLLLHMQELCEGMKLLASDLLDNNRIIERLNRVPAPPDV
The assay can be described thus: Selectivity interaction (KinomeScan (DiscoverX)) EUB0000595a IKBKE. The note with it: at 10 µM.

Assay [11] deals with Tyrosine-protein kinase ABL1 (Homo sapiens, UniProt P00519). Put plainly: Selectivity interaction (Kinase panel (KiNativ target engagement assay in Jurkat cells)) EUB0001635a ABL1. Format: cell-based. The note with it: Selectivity number of off-targets 0.0, Selectivity number of targets 233.0, Source Knowledge https://www.sciencedirect.com/science/article/pii/S2451945619300674?via%3Dihub, at 1 µM.
Chain of Tyrosine-protein kinase ABL1 (P00519 whole entry): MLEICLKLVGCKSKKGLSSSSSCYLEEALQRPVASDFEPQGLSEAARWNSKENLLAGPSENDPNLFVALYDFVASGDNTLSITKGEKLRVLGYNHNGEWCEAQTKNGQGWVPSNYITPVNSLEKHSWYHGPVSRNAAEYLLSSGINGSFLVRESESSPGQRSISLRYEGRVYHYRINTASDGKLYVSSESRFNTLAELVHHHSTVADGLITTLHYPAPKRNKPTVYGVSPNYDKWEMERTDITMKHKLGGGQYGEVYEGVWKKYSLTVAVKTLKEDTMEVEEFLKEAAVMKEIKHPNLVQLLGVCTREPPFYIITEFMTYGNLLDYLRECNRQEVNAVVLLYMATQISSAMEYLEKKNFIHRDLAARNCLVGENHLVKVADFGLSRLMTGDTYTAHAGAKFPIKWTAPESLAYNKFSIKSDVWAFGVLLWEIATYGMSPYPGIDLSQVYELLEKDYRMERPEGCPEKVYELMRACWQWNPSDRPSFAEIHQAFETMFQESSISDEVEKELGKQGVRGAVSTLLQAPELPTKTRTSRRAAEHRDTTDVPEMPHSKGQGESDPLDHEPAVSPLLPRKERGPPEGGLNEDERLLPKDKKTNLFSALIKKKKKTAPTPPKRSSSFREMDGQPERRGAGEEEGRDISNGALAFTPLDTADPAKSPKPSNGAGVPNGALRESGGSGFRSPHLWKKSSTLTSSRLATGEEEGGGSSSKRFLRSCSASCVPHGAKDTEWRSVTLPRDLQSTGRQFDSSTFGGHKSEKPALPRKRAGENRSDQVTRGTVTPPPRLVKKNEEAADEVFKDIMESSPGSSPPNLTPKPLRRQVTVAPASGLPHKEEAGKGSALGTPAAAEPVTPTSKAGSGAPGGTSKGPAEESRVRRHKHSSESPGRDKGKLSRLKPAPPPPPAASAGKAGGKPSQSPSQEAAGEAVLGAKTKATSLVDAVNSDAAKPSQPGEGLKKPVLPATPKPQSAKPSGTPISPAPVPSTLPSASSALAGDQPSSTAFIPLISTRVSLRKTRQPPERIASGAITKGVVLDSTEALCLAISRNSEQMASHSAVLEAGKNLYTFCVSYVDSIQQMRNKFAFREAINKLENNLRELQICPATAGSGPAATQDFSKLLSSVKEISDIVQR

Chain of Phosphatidylinositol 4,5-bisphosphate 3-kinase catalytic subunit alpha isoform (Homo sapiens) (P42336 whole entry, canonical isoform): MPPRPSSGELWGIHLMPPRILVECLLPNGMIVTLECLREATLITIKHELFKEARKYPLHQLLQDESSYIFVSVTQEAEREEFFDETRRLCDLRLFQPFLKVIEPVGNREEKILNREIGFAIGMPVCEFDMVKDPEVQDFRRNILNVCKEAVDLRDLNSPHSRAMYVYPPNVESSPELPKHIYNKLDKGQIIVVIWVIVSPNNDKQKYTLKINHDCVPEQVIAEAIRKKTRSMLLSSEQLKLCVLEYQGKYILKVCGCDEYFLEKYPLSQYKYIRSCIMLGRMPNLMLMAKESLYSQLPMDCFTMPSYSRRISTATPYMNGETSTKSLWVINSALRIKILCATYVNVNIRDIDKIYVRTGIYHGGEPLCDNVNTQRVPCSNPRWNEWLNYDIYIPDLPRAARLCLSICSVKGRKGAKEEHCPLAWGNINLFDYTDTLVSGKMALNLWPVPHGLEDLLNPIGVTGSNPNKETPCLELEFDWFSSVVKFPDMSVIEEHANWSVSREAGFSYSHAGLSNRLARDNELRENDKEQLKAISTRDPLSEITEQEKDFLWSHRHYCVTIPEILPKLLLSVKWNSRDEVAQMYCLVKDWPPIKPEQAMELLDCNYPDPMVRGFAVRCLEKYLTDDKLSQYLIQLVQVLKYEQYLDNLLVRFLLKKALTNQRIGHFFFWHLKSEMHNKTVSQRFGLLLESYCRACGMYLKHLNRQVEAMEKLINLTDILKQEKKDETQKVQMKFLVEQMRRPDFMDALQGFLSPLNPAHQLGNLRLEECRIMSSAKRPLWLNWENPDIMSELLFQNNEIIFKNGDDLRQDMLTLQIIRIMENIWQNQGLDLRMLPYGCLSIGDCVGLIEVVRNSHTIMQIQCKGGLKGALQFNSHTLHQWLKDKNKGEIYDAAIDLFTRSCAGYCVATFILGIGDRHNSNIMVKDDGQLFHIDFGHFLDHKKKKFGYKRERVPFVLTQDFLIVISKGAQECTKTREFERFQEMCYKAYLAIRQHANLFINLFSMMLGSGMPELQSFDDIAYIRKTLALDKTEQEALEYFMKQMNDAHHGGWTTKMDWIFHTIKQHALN
Chain of Bone morphogenetic protein receptor type-1A (P36894 whole entry): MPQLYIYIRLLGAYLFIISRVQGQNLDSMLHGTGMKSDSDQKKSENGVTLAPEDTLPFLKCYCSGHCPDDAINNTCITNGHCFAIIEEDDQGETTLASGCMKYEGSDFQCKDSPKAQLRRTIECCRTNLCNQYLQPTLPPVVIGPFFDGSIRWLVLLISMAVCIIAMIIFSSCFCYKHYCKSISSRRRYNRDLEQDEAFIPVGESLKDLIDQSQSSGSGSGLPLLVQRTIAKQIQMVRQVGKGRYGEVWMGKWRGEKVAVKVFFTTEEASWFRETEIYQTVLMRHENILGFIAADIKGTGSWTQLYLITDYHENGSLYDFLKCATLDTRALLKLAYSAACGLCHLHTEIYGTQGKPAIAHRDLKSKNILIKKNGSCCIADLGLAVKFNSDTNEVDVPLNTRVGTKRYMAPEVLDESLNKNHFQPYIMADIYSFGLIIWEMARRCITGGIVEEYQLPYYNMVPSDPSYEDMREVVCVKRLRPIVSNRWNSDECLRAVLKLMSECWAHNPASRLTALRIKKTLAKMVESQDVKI
Chain of Ribosomal protein S6 kinase alpha-3 (P51812 whole entry): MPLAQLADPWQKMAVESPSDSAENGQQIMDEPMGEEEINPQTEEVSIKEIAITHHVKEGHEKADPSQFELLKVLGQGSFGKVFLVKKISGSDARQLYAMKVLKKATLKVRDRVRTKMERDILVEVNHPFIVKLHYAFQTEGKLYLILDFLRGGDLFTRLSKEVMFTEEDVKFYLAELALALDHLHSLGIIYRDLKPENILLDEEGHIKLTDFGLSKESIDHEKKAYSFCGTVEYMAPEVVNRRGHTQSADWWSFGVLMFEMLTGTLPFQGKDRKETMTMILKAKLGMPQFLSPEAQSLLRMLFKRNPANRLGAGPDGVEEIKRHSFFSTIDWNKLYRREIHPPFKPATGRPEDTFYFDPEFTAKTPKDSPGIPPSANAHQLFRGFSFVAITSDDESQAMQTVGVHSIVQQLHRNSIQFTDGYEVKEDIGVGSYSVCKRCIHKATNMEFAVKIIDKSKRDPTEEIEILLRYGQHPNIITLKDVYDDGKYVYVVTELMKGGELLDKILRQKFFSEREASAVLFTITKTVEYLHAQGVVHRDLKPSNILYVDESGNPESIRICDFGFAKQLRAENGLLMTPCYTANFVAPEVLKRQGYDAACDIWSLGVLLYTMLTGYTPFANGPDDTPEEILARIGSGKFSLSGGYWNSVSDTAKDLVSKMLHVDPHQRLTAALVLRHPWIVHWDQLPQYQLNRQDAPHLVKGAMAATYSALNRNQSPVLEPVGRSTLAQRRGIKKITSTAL
Chain of Hepatocyte growth factor receptor (Homo sapiens), P08581 [M1250T] (P08581 whole entry M1250T, canonical isoform): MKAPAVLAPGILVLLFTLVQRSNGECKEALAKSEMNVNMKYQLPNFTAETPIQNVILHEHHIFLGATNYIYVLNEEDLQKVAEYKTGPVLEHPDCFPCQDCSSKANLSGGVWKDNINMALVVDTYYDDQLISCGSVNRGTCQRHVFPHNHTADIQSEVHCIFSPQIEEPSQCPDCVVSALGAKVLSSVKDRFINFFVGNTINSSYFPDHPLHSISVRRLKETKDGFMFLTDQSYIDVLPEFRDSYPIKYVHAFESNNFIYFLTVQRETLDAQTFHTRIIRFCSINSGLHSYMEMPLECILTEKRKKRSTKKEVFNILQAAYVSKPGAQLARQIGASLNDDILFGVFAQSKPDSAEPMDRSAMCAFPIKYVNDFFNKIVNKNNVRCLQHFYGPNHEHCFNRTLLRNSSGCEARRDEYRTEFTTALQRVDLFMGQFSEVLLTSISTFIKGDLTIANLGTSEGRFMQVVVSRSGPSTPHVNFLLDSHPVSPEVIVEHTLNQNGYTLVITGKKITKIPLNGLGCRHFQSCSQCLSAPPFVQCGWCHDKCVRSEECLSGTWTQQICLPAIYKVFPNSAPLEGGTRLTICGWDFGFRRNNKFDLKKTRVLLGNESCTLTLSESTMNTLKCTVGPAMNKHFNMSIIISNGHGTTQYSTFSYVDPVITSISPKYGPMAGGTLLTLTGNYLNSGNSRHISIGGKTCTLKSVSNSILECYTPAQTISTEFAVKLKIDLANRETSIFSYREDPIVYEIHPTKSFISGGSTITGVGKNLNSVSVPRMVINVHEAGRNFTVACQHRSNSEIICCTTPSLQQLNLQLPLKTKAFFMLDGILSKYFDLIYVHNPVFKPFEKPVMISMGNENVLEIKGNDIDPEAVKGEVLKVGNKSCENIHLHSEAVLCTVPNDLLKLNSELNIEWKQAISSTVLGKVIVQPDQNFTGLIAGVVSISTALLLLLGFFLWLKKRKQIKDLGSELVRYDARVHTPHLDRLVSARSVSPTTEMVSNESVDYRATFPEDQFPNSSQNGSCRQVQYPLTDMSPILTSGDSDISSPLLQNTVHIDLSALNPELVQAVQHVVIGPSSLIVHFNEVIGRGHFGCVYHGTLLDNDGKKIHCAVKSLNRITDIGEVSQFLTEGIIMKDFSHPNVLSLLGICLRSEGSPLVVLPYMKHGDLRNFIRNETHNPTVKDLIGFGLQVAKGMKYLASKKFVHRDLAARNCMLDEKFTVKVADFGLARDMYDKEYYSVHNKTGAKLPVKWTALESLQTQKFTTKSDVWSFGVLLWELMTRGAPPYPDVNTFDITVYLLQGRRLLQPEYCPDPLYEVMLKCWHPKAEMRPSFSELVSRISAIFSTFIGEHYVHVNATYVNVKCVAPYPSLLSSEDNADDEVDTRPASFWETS

In assay [1], `Cc1cc([C@@H](C)Nc2ccccc2C(=O)O)c2nc(N3CCOCC3)cc(=O)n2c1` [AZD-6482] displayed a % of control of 100%.

Consider `COc1cc(Nc2nc(C)cc(-c3cnn4nc(OC)ccc34)n2)cc(C(F)(F)F)c1`, for which the % of control in assay [2] was 72%. As for `CN(C)CCOc1ccc(-c2nc(-c3ccncc3)c(-c3ccc4c(c3)CC/C4=N\O)[nH]2)cc1`, the % of control in assay [3] amounted to 87%.

On to `O=C(NOC[C@H](O)CO)c1ccc(F)c(F)c1Nc1ccc(I)cc1F`, for which the % of control in assay [4] came to 100%; in assay [5], 92%. Turning to `Cn1cc(-n2cnc3c(NCc4nc5cc(Cl)c(Cl)cc5[nH]4)nc(N4CCOCC4)nc32)cn1`, the % of inhibition in assay [6] was 22.8%.

As to `CNC(=O)Nc1ccc(-c2nc(N3CC4CCC(C3)O4)c3cnn(C4CCC5(CC4)OCCO5)c3n2)cc1`, in [7], the % of control turned out to be 16%. In the case of `CC[C@@H]1[C@H](F)C(=O)N[C@@H]1COc1nccc2cc(C(N)=O)c(OC)cc12` [ZIMLOVISERTIB], the % of inhibition was -3.7% in assay [8] and 20.8% in assay [9]. `COCC(=O)NC/C=C/c1ccc2ncnc(Nc3ccc(Oc4ccc(C)nc4)c(C)c3)c2c1` [CP-724714] came in with a % of control in assay [10] of 100%. With `C=CC(=O)Nc1ccc(C(=O)Nc2[nH]nc3c2CN(C(=O)N[C@H](CN(C)C)c2ccccc2)C3(C)C)cc1`, the % of engagement in assay [11] is -12.6%.
